# Test: NOSTRA phase III trial: safety and adverse event analyses
# Assay type: in vivo
# Protocol: Safety analyses was performed using standard descriptive methods.
# The total number of treatment-emergent adverse events (TEAE) and the total number of patients with TEAEs, the total number of TEAEs related to the study drug (certain, probable, possible), the total number of patients with TEAEs related to the study drug, the total number of TEAEs and the total number of patients with serious TEAEs, the total number of patients with TEAEs leading to discontinuation of study treatment and the total number of patients with TEAEs leading to death were summarised by treatment arm.
# [1] = may be due to over-reporting of some centres
structure (smiles),measurement,setting,value
"CC(O)C(O)C1CNc2nc(N)nc(N)c2N1 [Ronopterin, 4-Amino-(6R,S)-5,6,7,8-tetrahydro-L-biopterin]",number of renal AEs,Ronopterin:placebo 11:3,11
same,tolerability of study treatment,"TBI patients, 17 mg/kg over 48 hours",well-tolerated
same,number of related AE/SAEs,"between the groups (Ronopterin, placebo)",low and comparable
same,number of adverse events (AEs) and serious adverse events (SAEs) compared to placebo,in vivo,slightly higher
same,"ICP increased, number of patients",[1],27 patients
same,"ICP increased, proportion of patients",[1],23.9%

# Source: US12171766B2, “Methods of treating patients suffering from brain injury and methods of increasing the value of the extended Glasgow Outcome Scale of patients suffering from brain injury” (VERINOS OPERATIONS GMBH, priority 2021, dated 2024)
